Data: patent EP3042903B1, “Substituted hetero-bicyclic compounds, compositions and medicinal applications thereof” (Impetis Biosciences Ltd., priority 2015, dated 2016)

Tests used:
[1] = tested on: B cell activation as measured by CD69 expression in mouse splenocytes; experiment: Inhibition of B cell activation as measured by CD69 expression in mouse splenocytes (flow cytometry); assay type: cell-based; conditions: C57/BL6 splenocytes, 3 µg/mL goat anti-mouse IgM, 18-20 hours, CD69 +ve cells within CD19; read-out: IC50 (nM) in B cell activation assay in Mouse spleenocytes
Description: Inhibition of B cell activation as measured by CD69 expression in mouse splenocytes:
To test the effect of BTK inhibitors in suppressing B-cell receptor (BCR) mediated activation of B cells, we developed a flow cytometry based assay to analyze CD69 expression in B cell population among total splenocyte from the mouse. C57/BL6 mouse spleens were dissected out and splenocytes were isolated by mincing the tissue with a syringe plunger followed by RBC lysis (0.85% ammonium chloride, (Qualigens,Cat #21405) and several washes in PBS. Finally, cell were cultured in culture medium [RPMI medium (Sigma, Cat R6504) with 10% FBS (Gibco - Cat #10270).
Test compounds were diluted half log starting from 2 mM in 100% DMSO (Sigma, cat#D2650) (200X). 1x10^5 splenocytes were incubated with 1 µL of diluted test compounds in 200 µL culture medium in a U-bottom 96 well plate (Greiner) at 37°C with 5% CO2 for 30 minutes. Control wells received 1 µL of 100% DMSO without any compound. The cells were stimulated with 3 µg/mL goat anti-mouse IgM (Sigma, cat#M8644) and incubated for 18-20 hours. After the stimulation, cells were washed in cold PBS with 1% FBS and stained with 1:100 dilution of anti-CD69-PE (eBioscience, cat#12-0691-83) and anti-CD19-PE.Cy5 (eBioscience, cat#15-0193-83) for 1 hour on ice. Then the cells were washed 3 times with PBS with 1% FBS and analyzed by Guava Easycyte Mini flow cytometer system (Millipore). Flow cytometry data were analyzed using Weasel software (WEHI, Melbourne). B cells were gated using CD19 marker. Expression of CD69 was analyzed as percentage of CD69 +ve cells within CD19. Percent activity for each data point was calculated using following formula: [formula]
(§1) Percentage activity was fit using sigmoid dose response with variable slope logistic equation in GraphPad Prism 5 software to determine IC50.

[2] = target: T1, Recombinant Human Bruton's tyrosine kinase (Btk) (Homo sapiens, UniProt Q06187); experiment: Recombinant Human Bruton's tyrosine kinase (Btk) inhibition assay (HTRF KinEASE-TK); assay type: biochemical; conditions: 20 ng/ml rhBtk, 77 µM ATP (KM), 1 µM TK-Biotin Substrate, 90 minutes; read-out: IC50 (nM) in recombinant hBTK assay
T1 construct: Full length human BTK (hBTK, Genbank#NM_000061.2) was cloned into pFastBac-HTB vector; 6XHis (N); made in house; host or cells: Sf9 cells (Bac-to-Bac baculovirus expression system)
T1 sequence (Q06187 whole entry): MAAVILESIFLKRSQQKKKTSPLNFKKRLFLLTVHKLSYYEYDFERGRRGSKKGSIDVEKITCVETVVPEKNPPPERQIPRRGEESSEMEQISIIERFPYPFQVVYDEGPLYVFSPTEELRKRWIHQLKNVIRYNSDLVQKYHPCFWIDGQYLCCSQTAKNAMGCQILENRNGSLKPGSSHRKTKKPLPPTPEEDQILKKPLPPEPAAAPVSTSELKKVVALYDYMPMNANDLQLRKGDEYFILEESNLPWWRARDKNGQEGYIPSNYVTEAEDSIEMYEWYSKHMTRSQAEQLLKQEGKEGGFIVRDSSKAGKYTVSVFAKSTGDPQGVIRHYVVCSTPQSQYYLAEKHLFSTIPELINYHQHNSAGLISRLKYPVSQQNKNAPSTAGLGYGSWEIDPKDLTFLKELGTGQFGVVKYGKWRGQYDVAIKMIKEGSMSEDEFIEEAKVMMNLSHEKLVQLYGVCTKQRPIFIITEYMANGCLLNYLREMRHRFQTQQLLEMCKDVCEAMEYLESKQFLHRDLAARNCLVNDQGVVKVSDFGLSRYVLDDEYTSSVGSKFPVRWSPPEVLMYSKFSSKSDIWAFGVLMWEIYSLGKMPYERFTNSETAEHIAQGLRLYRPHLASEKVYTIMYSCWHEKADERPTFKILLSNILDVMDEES
Protocol: Recombinant Human Bruton's tyrosine kinase (Btk) inhibition assay.
Full length human BTK (hBTK, Genbank#NM_000061.2) was cloned into pFastBac-HTB vector (Invitrogen, cat#10359-016). hBTK gene was expressed with N'-terminal 6XHis tag in Sf9 cells using Bac-to-Bac ^(R) Baculovirus expression system (Invitrogen, cat#10359-016) and the recombinant protein was purified by Ni-NTA method. The elution buffer for hBTK consisted of 50 mM Hepes pH 8.0, 300 mM NaCl, 10% glycerol, 1 mM dithiothreitol and 200 mM imidazole.
The inhibition assays were performed using the generic tyrosine kinase assay kit from Cis Bio (HTRF® KinEASE - TK™ # 62TK0PEB). The assay is based on the principle of fluorescence resonance energy transfer (FRET) between the Europium Cryptate labeled anti-phosphotyrosine antibody and streptavidin labeled fluorophore, XL-665. In an uninhibited kinase reaction the biotinylated peptide substrate (Tk-Biotin) gets phosphorylated at an intermediate tyrosine site which is captured by anti-phosphotyrosine antibody which eventually acts as a FRET donor. The streptavidin labeled XL-665 binds strongly to the Tk-Biotin substrate and act as a FRET acceptor. The resultant FRET signal is measured at 665 nm. A ratio of this specific fluorescence (665nm) to the background fluorescence (620nm), conferred by the free antibody, is directly proportional to the kinase activity.
The Btk inhibition assays were performed using 20 ng/ml of rhBtk in a final volume of 10µl reaction buffer containing 77 µM ATP and 1 µM TK-Biotin Substrate in 50 mM HEPES pH 7.0, 5mM MgCl2, 1mM DTT, 0.01% Tween 20 and 50nM SEB®; with a range of concentrations of the inhibitors. The kinase reaction was carried out at the KM of ATP (77 µM) as well as that of Tk-Biotin substrate (1 µM). After 90 minutes, the reaction was stopped by addition of SA-XL665 at a concentration of 62.5 nM in HTRF® detection buffer containing EDTA. Finally 5 µL of TK antibody-cryptate was added to the reaction and the plate was incubated for additional 60 minutes. The fluorescence was read using the FlexStation (Molecular Devices) with excitation at 340 nm and emissions at 620nm (for Cryptate) and 665nm (for FRET). A ratio of the 2 emissions was calculated for each well and expressed as follows: Specific signal = Ratio(Sample)−Ratio(Negative) [formula] Ratio = (665nm/620nm) × 10^4 [formula] Mean Ratio = ∑Ratio/3(triplicates) [formula]
For each data point, % inhibition is calculated based on uninhibited reaction which is considered as 100% activity over no enzyme or substrate controls. Dose response data is then fit using a four parameter logistic equation using GraphPad Prism 5 software to determine inhibition constant 50(IC50).

[3] = tested on: B cell activation as measured by CD69 expression in Human whole blood; experiment: Inhibition of B cell activation as measured by CD69 expression in Human whole blood (flow cytometry); assay type: cell-based; conditions: heparinized human whole blood, anti-IgD antibody 30 µg/mL, 4 hours, CD69 positive cells among CD20 B cells
Protocol: Inhibition of B cell activation as measured by CD69 expression in Human whole blood
To test the effect of BTK inhibitors in suppressing B-cell receptor (BCR) mediated activation of B cells, we developed a flow cytometry based assay to analyze CD69 expression in B cell population in human whole blood. Freshly collected heparinized human whole blood (60 µL/well) was dispensed in 96-well U bottom plate (Greiner), treated with the test compound at a concentrations ranging from 10 µM to 0.3 nM (half log dilutions). 0.5% DMSO (Sigma, cat#D2650) was used as vehicle control. The whole blood was incubated with compounds for 1 hour, followed by stimulation with anti-IgD antibody (Goat Anti-Human IgD Antibody - affinity purified, Bethyl laboratories, cat#A80-106A) at a final concentration of 30 µg/mL at 37°C and 5% CO2 for 4 hours. Subsequently, 45 µL blood was transferred to 1.5 ml microcentrifuge tubes and 1.2 µL of anti-CD20-PE.Cy5 (BD Biosciences, cat#561761)and 1.6 µL of anti-CD69-PE (eBioscience, cat#12-0691-83) antibody were added and mixed properly by gently tapping the tubes. Blood was stained for 20 minutes at room temperature (RT). After antibody incubation, 1 mL pre-warmed 1X Lyse/Fix solution (BD Biosciences, cat#558049) was added and cells were incubated at RT for 10 minutes. Then the tubes were centrifuged at 450xg for 5 minutes at RT and supernatant was removed. Pellet was disrupted by gentle tapping, cells were washed with 1 mL freshly prepared wash buffer and centrifuged at 450xg for 5 minutes at RT. Supernatant was removed completely before resuspending cells in 200 µl of wash buffer and proceeded for acquisition in Guava Easy Cyte Mini instrument. Acquisition was done with following laser settings: FSC Gain: X 16, FSC fine gain 100%, SSC: 893V, GRN: 663V, YLW: 649V, RED: 802V, Threshold Parameters Offset: FSC 0.73 V Threshold 300 units. The cells were diluted in such a way so that cell conc. should not exceed 500 cells/µL and at least 5000 cells were acquired. Viable lymphocytes were gated from the forward and side scatter profile of cells and B cells were sub-gated based on CD20-PE.Cy5 staining. Percent of CD69-PE positive cells were calculated among B lymphocyte sub-gate using Weasel software. Percent activity for each data point was calculated using following formula: [formula]
as §1

Structure (SMILES): O=C1c2c(F)cc(C3CC3)cc2OCCN1c1cc(F)cc(-c2ccnc3[nH]c(-c4ccc(CN5CCN(CC(F)F)CC5)cn4)cc23)c1CO [Example 3, 8-cyclopropyl-4-[3-[2-[5-[[4-(2,2-difluoroethyl)piperazin-1-yl]methyl]-2-pyridyl]-1H-pyrrolo[2,3-b]pyridin-4-yl]-5-fluoro-2-(hydroxymethyl)phenyl]-6-fluoro-2,3-dihydro-1,4-benzoxazepin-5-one]
- IC50 [1]: 2.4 nM
- IC50 [2]: 0.65 nM
- IC50 [3]: 54.2 nM
